Source: ChEMBL document CHEMBL1137615, “Discovery of orally efficacious tetracyclic metabotropic glutamate receptor 1 (mGluR1) antagonists for the treatment of chronic pain” (J Med Chem, 2007)

How the values were obtained:
[1] = AUC (0 to 6 hrs) in rat at 10 mg/kg, po by CARRS; format: ADME, organism-based; design: time < 6 hr, dose 10 mg/kg, route oral; conditions: plasma
Rattus norvegicus [2] = assay: Effect on neuropathic pain in SNL rat model assessed as paw withdrawal threshold at 10 mg/kg, po; format: functional
[3] = Cmax in rat at 10 mg/kg, po by CARRS; format: ADME, organism-based; design: dose 10 mg/kg, route oral; conditions: in vivo
Rattus norvegicus [4] = assay: Inhibition of neuropathic pain in SNL rat model at 10 mg/kg, po; format: functional
[5] = target: T1, Metabotropic glutamate receptor 5 (Homo sapiens, UniProt P41594); assay: Antagonist activity at human mGluR5b expressed in HEK293 cells assessed by measuring intracellular calcium by FLIPR assay; format: functional, cell-based
Target sequence in this assay (P41594 whole entry): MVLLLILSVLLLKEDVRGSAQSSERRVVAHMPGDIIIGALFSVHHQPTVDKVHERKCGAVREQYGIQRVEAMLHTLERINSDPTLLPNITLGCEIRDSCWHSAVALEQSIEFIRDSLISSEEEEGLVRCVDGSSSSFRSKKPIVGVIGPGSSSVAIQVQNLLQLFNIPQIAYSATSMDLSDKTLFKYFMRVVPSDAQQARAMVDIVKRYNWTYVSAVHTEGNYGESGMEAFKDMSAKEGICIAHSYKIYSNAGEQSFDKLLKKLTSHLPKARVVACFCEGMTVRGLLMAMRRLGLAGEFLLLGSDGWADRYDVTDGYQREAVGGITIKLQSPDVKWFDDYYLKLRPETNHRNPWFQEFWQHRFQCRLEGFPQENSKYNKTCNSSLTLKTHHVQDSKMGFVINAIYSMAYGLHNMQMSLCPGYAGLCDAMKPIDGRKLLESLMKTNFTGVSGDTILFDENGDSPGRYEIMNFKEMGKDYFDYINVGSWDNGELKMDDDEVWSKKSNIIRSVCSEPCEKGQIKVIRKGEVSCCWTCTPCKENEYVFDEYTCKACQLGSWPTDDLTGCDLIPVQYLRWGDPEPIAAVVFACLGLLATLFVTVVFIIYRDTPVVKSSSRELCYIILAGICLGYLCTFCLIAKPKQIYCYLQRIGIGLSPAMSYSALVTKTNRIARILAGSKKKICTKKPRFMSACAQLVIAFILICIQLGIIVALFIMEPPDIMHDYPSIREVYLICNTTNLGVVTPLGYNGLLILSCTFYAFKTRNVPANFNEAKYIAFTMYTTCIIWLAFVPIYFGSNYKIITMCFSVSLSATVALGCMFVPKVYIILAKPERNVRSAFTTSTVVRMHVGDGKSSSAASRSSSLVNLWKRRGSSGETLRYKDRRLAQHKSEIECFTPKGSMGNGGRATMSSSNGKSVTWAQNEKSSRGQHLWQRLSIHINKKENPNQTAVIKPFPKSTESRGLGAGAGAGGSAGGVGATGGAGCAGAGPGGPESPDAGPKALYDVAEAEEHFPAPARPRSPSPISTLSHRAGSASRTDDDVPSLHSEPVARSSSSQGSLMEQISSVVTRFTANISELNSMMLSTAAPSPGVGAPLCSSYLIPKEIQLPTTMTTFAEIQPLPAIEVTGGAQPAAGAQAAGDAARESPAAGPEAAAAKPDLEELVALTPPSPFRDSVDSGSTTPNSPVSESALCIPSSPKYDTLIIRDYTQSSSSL

[6] = Tmax in rat at 10 mg/kg, po by CARRS; format: ADME, organism-based; design: dose 10 mg/kg, route oral; conditions: in vivo
[7] = target: Metabotropic glutamate receptor 1 (Rattus norvegicus, UniProt P23385); assay: Displacement of [3H]9-Dimethylamino-3-(4-methoxy-phenyl)-3H-pyrido[3',2':4,5]thieno[3,2-d]pyrimidin-4-one from mGluR1 in rat cerebellum membrane; format: cell membranes
[8] = target: T1, Metabotropic glutamate receptor 5; assay: Displacement of radioligand from human mGluR5b expressed in HEK293 cells at 1 uM; format: cell-based
Target sequence in this assay (P41594 21-1212 limits assumed): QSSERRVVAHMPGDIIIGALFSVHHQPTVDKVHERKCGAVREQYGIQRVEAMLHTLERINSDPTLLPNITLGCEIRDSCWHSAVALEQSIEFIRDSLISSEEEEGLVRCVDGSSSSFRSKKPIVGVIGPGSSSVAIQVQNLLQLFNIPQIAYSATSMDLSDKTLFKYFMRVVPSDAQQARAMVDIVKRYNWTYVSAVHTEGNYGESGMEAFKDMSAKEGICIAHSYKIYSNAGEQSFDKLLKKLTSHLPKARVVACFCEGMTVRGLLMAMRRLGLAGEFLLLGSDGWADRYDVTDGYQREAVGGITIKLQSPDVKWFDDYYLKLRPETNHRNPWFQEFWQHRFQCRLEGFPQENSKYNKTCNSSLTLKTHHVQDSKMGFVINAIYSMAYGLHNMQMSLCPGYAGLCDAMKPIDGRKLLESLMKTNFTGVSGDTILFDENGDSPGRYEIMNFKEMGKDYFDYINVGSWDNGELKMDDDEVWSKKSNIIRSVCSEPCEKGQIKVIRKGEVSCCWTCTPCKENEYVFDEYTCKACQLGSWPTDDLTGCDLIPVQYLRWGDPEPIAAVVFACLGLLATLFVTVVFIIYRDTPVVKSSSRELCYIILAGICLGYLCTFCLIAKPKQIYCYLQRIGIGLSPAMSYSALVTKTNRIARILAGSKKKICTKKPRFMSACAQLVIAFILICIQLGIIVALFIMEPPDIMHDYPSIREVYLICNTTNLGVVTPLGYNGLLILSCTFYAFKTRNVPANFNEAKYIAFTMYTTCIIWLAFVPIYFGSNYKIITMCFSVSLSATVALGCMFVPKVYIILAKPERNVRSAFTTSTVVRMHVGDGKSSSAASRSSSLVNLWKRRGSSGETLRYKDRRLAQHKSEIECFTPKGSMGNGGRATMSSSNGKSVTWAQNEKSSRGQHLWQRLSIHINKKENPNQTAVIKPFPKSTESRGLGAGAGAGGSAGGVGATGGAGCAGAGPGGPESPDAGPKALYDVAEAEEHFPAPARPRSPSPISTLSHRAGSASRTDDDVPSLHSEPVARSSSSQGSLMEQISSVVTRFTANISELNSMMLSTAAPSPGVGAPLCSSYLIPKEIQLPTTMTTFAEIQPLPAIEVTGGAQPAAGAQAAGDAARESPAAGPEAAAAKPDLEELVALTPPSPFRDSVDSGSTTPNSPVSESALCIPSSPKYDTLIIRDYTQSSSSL

[9] = target: Metabotropic glutamate receptor 1 (Homo sapiens, UniProt Q13255); assay: Antagonist activity at human mGluR1a expressed in CHO cells assessed by measuring intracellular calcium by FLIPR assay; format: functional, cell-based
Rattus norvegicus [10] = assay: Effect on neuropathic pain in orally dosed SNL rat model; format: functional; conditions: po

Metabotropic glutamate receptor 1 (Homo sapiens, UniProt Q13255), sequence (Q13255 whole entry): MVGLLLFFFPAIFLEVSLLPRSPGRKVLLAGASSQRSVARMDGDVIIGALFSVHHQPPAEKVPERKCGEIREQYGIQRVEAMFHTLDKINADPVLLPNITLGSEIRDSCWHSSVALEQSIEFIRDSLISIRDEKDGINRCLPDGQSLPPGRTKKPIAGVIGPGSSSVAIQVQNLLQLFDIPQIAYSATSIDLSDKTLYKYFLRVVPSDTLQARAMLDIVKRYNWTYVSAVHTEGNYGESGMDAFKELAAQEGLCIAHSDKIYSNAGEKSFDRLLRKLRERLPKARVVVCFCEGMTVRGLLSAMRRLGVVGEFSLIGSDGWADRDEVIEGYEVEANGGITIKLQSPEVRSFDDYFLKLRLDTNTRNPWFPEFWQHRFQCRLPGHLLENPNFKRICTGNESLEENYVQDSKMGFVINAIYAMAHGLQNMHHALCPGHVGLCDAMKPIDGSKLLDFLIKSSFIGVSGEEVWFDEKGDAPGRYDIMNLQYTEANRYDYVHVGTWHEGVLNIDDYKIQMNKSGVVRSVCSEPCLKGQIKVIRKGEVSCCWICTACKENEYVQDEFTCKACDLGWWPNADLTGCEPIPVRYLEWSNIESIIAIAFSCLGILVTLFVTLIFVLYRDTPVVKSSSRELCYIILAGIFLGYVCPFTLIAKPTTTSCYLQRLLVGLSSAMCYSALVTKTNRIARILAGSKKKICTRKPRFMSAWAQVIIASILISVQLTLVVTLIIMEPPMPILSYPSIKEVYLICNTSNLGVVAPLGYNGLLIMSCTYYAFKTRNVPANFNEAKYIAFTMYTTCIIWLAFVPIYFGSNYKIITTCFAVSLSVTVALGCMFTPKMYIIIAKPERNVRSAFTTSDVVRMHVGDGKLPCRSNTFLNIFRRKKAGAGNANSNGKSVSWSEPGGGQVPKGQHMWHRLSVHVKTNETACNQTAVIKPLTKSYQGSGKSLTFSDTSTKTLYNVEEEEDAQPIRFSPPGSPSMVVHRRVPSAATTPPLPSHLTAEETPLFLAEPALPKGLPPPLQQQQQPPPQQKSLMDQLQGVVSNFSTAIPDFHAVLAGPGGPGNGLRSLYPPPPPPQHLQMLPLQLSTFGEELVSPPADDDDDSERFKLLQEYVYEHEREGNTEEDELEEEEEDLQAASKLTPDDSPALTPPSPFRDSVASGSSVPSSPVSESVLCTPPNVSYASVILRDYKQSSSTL
Metabotropic glutamate receptor 1 (Rattus norvegicus, UniProt P23385), sequence (P23385 whole entry): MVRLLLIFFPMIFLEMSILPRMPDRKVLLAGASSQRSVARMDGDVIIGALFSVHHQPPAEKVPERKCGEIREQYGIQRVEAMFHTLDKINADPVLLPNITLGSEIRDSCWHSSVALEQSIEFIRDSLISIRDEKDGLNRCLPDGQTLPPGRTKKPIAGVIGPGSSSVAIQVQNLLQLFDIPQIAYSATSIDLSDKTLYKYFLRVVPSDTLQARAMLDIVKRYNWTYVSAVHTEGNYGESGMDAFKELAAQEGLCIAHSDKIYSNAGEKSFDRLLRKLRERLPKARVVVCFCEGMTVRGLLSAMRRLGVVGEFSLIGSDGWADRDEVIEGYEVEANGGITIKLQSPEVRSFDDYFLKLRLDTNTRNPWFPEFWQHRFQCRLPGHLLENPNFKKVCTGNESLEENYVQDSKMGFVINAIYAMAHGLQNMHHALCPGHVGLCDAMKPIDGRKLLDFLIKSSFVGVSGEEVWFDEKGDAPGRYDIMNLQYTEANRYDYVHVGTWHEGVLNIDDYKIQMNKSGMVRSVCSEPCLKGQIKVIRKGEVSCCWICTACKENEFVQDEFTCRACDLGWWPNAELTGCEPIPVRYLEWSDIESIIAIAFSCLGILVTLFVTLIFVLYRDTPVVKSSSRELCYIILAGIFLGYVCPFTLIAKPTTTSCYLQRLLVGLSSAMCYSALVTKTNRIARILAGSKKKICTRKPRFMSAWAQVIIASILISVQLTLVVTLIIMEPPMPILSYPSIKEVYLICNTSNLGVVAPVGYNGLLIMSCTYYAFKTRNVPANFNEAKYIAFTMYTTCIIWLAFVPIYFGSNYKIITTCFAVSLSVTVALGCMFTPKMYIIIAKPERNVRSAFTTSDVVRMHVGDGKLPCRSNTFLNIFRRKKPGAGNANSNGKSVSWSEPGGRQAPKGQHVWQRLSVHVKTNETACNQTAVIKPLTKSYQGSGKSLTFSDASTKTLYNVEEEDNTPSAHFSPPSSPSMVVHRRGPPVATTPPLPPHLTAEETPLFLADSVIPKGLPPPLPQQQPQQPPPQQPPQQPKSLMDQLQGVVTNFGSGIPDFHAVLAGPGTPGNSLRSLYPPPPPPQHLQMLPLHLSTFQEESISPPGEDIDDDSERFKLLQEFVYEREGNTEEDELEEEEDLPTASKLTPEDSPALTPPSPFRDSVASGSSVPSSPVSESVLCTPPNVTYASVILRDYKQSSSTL

| AUC(0-t) at 6 h [1] | Cmax [3] | IC50 [5] | Tmax [6] | Ki [7] | Activity [8] | IC50 [9] | SMILES | Activity (Rattus norvegicus [2]) | MPE (Rattus norvegicus [4]) | ED50 (Rattus norvegicus [10]) |
| --- | --- | --- | --- | --- | --- | --- | --- | --- | --- | --- |
| 5.19 µM·h | 1420 nM | > 1000 nM | 0.5 h | 0.2 nM |  |  | C[C@@H]1CNc2c(cnc3sc4c(=O)n(-c5ccc(Cl)cc5)cnc4c23)O1 | 10.9 g | 68% |  |
|  |  |  |  | 19.6 nM | -12% |  | O=c1c2sc3ncc4cn[nH]c4c3c2ncn1-c1ccc(Cl)cc1 |  |  |  |
| 0.035 µM·h | 71 nM | > 1000 nM | 0.5 h | 16.9 nM |  |  | Cc1ccc(-n2cnc3c(sc4ncc5cc[nH]c5c43)c2=O)cc1 |  |  |  |
|  |  |  |  | 1000 nM | -10% | 541 nM | Cc1ccc(-n2cnc3c(sc4ncc5sc(=S)[nH]c5c43)c2=O)cc1 |  |  |  |
| 0.077 µM·h | 70 nM | 702 nM | 1 h | 0.5 nM |  |  | Cc1ccc(-n2cnc3c(sc4ncc5c(c43)NCCO5)c2=O)cc1 |  |  |  |
| 1.56 µM·h | 467 nM | > 1000 nM | 2 h | 1 nM |  |  | COc1ccc(-n2cnc3c(sc4ncc5c(c43)NCCO5)c2=O)cc1 | 8.5 g | 50% | 8 mg/kg |
|  |  |  |  | 104 nM | 0.15% |  | Cn1cnc2cnc3sc4c(=O)n(-c5ccc(Cl)cc5)cnc4c3c21 |  |  |  |
|  |  |  |  | 17.8 nM | 5% | 16.8 nM | Cc1ccc(-n2cnc3c(sc4ncc5cn[nH]c5c43)c2=O)cc1 |  |  |  |
| 0.018 µM·h | 37 nM |  | 0.5 h | 2.4 nM | 1.7% |  | O=c1c2sc3ncc4cc[nH]c4c3c2ncn1-c1ccc(Cl)cc1 |  |  |  |
| 1.32 µM·h | 394 nM | > 10000 nM | 2 h | 28.6 nM |  |  | COc1ccc(-n2cnc3c(sc4ncc5cc[nH]c5c43)c2=O)cc1 | 6.6 g | 39% |  |
|  |  |  |  | 1000 nM | -8% | 446 nM | Cc1ccc(-n2cnc3c(sc4ncc5sc(=O)[nH]c5c43)c2=O)cc1 |  |  |  |
| 0.366 µM·h | 198 nM | > 1000 nM | 1 h | 0.4 nM |  |  | O=c1c2sc3ncc4c(c3c2ncn1-c1ccc(Cl)cc1)NCCO4 | 11.8 g | 73% | 5.1 mg/kg |
|  |  | > 1000 nM |  | 0.3 nM |  | 2.4 nM | COc1ccc(-n2cnc3c(sc4ncc5c(c43)NC[C@@H](C)O5)c2=O)cc1 |  |  |  |
| 1.93 µM·h | 564 nM | 10000 nM | 0.5 h | 7.9 nM |  | 9.5 nM | COc1ccc(-n2cnc3c(sc4nccc(N(C)C)c43)c2=O)cc1 | 13.2 g | 87% |  |
|  |  |  |  |  |  | 5.9 nM | CNc1c(Br)cnc2sc3c(=O)n(-c4ccc(Cl)cc4)cnc3c12 |  |  |  |
|  |  | 609 nM |  | 0.6 nM |  |  | Cc1ccc(-n2cnc3c(sc4ncc5c(c43)NC[C@@H](C)O5)c2=O)cc1 |  |  |  |
|  |  |  |  | 788 nM | -2% | 636 nM | CSc1nc2c(cnc3sc4c(=O)n(-c5ccc(C)cc5)cnc4c32)s1 |  |  |  |
|  |  |  |  | 10.8 nM | -1.7% |  | O=c1c2sc3ncc4nc[nH]c4c3c2ncn1-c1ccc(Cl)cc1 |  |  |  |
| 8.43 µM·h | 2050 nM | > 1000 nM | 2 h | 1.5 nM |  |  | C[C@H]1CNc2c(cnc3sc4c(=O)n(-c5ccc(Cl)cc5)cnc4c23)O1 | 7.7 g | 44% |  |

| SMILES | AUC(0-t) at 6 h [1] | Cmax [3] | IC50 [5] | Tmax [6] | Ki [7] | Activity [8] | IC50 [9] | Activity (Rattus norvegicus [2]) | MPE (Rattus norvegicus [4]) | ED50 (Rattus norvegicus [10]) |
| --- | --- | --- | --- | --- | --- | --- | --- | --- | --- | --- |
| C[C@H]1COc2cnc3sc4c(=O)n(-c5ccc(Cl)cc5)cnc4c3c2N1 |  |  | > 1000 nM |  | 0.5 nM |  |  |  |  |  |
| C[C@@H]1COc2cnc3sc4c(=O)n(-c5ccc(Cl)cc5)cnc4c3c2N1 |  |  | > 1000 nM |  | 9.1 nM |  | 24.4 nM |  |  |  |
